Source: ChEMBL document CHEMBL3585336, “Synthesis and evaluation of quinazoline amino acid derivatives as mono amine oxidase (MAO) inhibitors” (Bioorg Med Chem, 2015)

Columns and labels:
[1] = molecular target: T1, Amine oxidase [flavin-containing] B (Bos taurus, UniProt P56560); assay: Inhibition of bovine brain mitochondria MAO-B using benzylamine substrate after 60 mins by fluorimetric method
T1 sequence (P56560 whole entry): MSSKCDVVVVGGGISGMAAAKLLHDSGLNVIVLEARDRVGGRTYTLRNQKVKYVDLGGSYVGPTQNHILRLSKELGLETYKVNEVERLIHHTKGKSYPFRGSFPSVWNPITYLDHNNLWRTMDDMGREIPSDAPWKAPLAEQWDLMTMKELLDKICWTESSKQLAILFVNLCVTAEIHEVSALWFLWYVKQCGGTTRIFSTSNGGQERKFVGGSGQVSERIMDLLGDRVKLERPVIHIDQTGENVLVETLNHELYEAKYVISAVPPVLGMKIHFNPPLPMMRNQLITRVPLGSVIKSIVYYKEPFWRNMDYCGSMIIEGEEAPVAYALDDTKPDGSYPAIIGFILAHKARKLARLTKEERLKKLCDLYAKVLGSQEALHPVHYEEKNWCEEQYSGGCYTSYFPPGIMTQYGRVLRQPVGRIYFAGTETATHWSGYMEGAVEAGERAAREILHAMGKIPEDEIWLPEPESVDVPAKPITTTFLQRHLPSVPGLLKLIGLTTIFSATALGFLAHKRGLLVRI

Mus musculus [2] = assay: Acute toxicity in mouse at 300 mg/kg, po after 24 hrs; format: organism-based; conditions: in vivo
Mus musculus [3] = assay: Acute toxicity in mouse at 125 mg/kg, ip after 24 hrs; format: organism-based; conditions: in vivo
[4] = molecular target: T2, Amine oxidase [flavin-containing] A (Bos taurus, UniProt P21398); assay: Inhibition of bovine brain mitochondria MAO-A using serotonin substrate after 60 mins by fluorimetric method
T2 sequence (P21398 whole entry): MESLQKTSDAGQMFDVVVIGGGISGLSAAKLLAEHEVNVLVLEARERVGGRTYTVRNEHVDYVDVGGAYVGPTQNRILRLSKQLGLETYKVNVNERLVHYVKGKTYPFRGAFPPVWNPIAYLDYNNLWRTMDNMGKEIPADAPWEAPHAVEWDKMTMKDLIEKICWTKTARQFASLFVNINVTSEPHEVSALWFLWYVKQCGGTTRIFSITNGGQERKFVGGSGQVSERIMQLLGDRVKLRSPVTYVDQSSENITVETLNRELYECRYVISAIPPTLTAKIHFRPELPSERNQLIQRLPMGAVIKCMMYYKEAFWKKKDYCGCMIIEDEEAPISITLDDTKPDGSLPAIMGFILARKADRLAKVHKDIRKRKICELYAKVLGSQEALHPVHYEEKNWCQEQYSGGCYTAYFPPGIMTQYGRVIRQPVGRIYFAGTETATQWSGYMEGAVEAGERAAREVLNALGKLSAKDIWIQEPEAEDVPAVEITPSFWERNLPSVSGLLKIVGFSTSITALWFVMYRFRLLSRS

Structure (SMILES)	IC50 [1]	Activity (Mus musculus [2])	Activity (Mus musculus [3])	IC50 [4]
COC(=O)[C@H](C)NC(=O)c1ccccc1N	410 µM	Non-toxic	Non-toxic	0.063 µM
COC(=O)CNC(=O)c1ccccc1N	850 µM	Non-toxic	Non-toxic	0.052 µM
COC(=O)[C@H](Cc1ccccc1)NC(=O)c1ccccc1N	680 µM	Non-toxic	Non-toxic	0.038 µM
COC(=O)CCNC(=O)c1ccccc1N	560 µM	Non-toxic	Non-toxic	0.062 µM
COC(=O)CCCNC(=O)c1ccccc1N	460 µM	Non-toxic	Non-toxic	0.071 µM
COC(=O)CCCCCNC(=O)c1ccccc1N	440 µM	Non-toxic	Non-toxic	0.056 µM
COC(=O)CN1C(=O)c2ccccc2NC1c1ccccc1 (stereo unspecified)		Non-toxic	Non-toxic	
COC(=O)CN1C(=O)c2ccccc2NC1c1ccc2c(c1)OCO2 (stereo unspecified)	740 µM	Non-toxic	Non-toxic	0.061 µM
COC(=O)CN1C(=O)c2ccccc2NC1c1ccco1 (stereo unspecified)	380 µM	Non-toxic	Non-toxic	0.044 µM
COC(=O)CN1C(=O)c2ccccc2NC1c1ccc(Cl)cc1 (stereo unspecified)	88 µM	Non-toxic	Non-toxic	0.0036 µM
COC(=O)CN1C(=O)c2ccccc2NC1c1ccc(OC)cc1 (stereo unspecified)	560 µM	Non-toxic	Non-toxic	0.048 µM
COC(=O)C(C)N1C(=O)c2ccccc2NC1c1ccccc1 (stereo unspecified)	460 µM	Non-toxic	Non-toxic	0.039 µM
COC(=O)C(C)N1C(=O)c2ccccc2NC1c1ccc2c(c1)OCO2 (stereo unspecified)	86 µM	Non-toxic	Non-toxic	0.0028 µM
COC(=O)C(C)N1C(=O)c2ccccc2NC1c1ccco1 (stereo unspecified)	61 µM	Non-toxic	Non-toxic	0.0082 µM
COC(=O)C(Cc1ccccc1)N1C(=O)c2ccccc2NC1c1ccco1 (stereo unspecified)	340 µM	Non-toxic	Non-toxic	0.073 µM
COC(=O)C(Cc1ccccc1)N1C(=O)c2ccccc2NC1c1ccc(Cl)cc1 (stereo unspecified)	540 µM	Non-toxic	Non-toxic	0.042 µM
NNC(=O)CN1C(=O)c2ccccc2NC1c1ccccc1 (stereo unspecified)	310 µM	Non-toxic	Non-toxic	0.038 µM
NNC(=O)CN1C(=O)c2ccccc2NC1c1ccc2c(c1)OCO2 (stereo unspecified)	83 µM	Non-toxic	Non-toxic	0.0021 µM
NNC(=O)CN1C(=O)c2ccccc2NC1c1ccco1 (stereo unspecified)	560 µM	Non-toxic	Non-toxic	0.036 µM
NNC(=O)CN1C(=O)c2ccccc2NC1c1ccc(Cl)cc1 (stereo unspecified)	940 µM	Non-toxic	Non-toxic	0.048 µM

Structure (SMILES)	IC50 [1]	Activity (Mus musculus [2])	Activity (Mus musculus [3])	IC50 [4]
COc1ccc(C2Nc3ccccc3C(=O)N2CC(=O)NN)cc1 (stereo unspecified)	890 µM	Non-toxic	Non-toxic	0.082 µM
CC(C(=O)NN)N1C(=O)c2ccccc2NC1c1ccco1 (stereo unspecified)	310 µM	Non-toxic	Non-toxic	0.032 µM
NNC(=O)C(Cc1ccccc1)N1C(=O)c2ccccc2NC1c1ccco1 (stereo unspecified)	220 µM	Non-toxic	Non-toxic	0.028 µM
NNC(=O)C(Cc1ccccc1)N1C(=O)c2ccccc2NC1c1ccc(Cl)cc1 (stereo unspecified)	120 µM	Non-toxic	Non-toxic	0.018 µM
COC(=O)CCN1C(=O)c2ccccc2NC1c1ccccc1 (stereo unspecified)	860 µM	Non-toxic	Non-toxic	0.092 µM
COC(=O)CCN1C(=O)c2ccccc2NC1c1ccc2c(c1)OCO2 (stereo unspecified)	170 µM	Non-toxic	Non-toxic	0.084 µM
COC(=O)CCN1C(=O)c2ccccc2NC1c1ccc(Cl)cc1 (stereo unspecified)	720 µM	Non-toxic	Non-toxic	0.098 µM
COC(=O)CCCN1C(=O)c2ccccc2NC1c1ccccc1 (stereo unspecified)	540 µM	Non-toxic	Non-toxic	0.063 µM
COC(=O)CCCN1C(=O)c2ccccc2NC1c1ccc2c(c1)OCO2 (stereo unspecified)	660 µM	Non-toxic	Non-toxic	0.088 µM
COC(=O)CCCN1C(=O)c2ccccc2NC1c1ccco1 (stereo unspecified)	780 µM	Non-toxic	Non-toxic	0.096 µM
COC(=O)CCCCCN1C(=O)c2ccccc2NC1c1ccc2c(c1)OCO2 (stereo unspecified)	820 µM	Non-toxic	Non-toxic	0.084 µM
COC(=O)CCCCCN1C(=O)c2ccccc2NC1c1ccc(Cl)cc1 (stereo unspecified)	290 µM	Non-toxic	Non-toxic	0.044 µM
COC(=O)CCCCCNC(=O)c1ccccc1/N=C/c1ccccc1	540 µM	Non-toxic	Non-toxic	0.064 µM
NNC(=O)CCN1C(=O)c2ccccc2NC1c1ccccc1 (stereo unspecified)	210 µM	Non-toxic	Non-toxic	0.016 µM
NNC(=O)CCN1C(=O)c2ccccc2NC1c1ccc2c(c1)OCO2 (stereo unspecified)	380 µM	Non-toxic	Non-toxic	0.032 µM
NNC(=O)CCN1C(=O)c2ccccc2NC1c1ccc(Cl)cc1 (stereo unspecified)	420 µM	Non-toxic	Non-toxic	0.051 µM
NNC(=O)CCCN1C(=O)c2ccccc2NC1c1ccccc1 (stereo unspecified)	370 µM	Non-toxic	Non-toxic	0.047 µM
NNC(=O)CCCN1C(=O)c2ccccc2NC1c1ccc2c(c1)OCO2 (stereo unspecified)	420 µM	Non-toxic	Non-toxic	0.082 µM
NNC(=O)CCCN1C(=O)c2ccccc2NC1c1ccco1 (stereo unspecified)	270 µM	Non-toxic	Non-toxic	0.036 µM
C#CCN(C)CCCOc1ccc(Cl)cc1Cl [CLORGILINE]		Non-toxic	Non-toxic	
